# Experimental data: PubChem BioAssay AID1963976 (Molecular Pharmacology Branch, DTP, NCI, 2024)
# Tested on: 435261-313-R-J1-PDC tumor spheroid viability
# Experiment: Anticancer human tumor 435261-313-R-J1-PDC patient-derived colon adenocarcinoma cell line growth inhibition [PI3K]
# Settings: spheroids with HUVEC and MSC; for IC50: curve of first compound; for viability, T/C: stronger effect = lower value
# Procedure, shortened: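 Combination activity was assessed by viability in multicellular tumor spheroids carrying HUVEC and MSC components. Agents were tested with PI3K inhibitors from a Cmax-based top dose (or 10 microM) downward in half-log increments.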
# [1] = second compound 0.0316 µM, first compound 0.0316 µM
# [2] = second compound 0.0316 µM, first compound 0.1 µM
# [3] = second compound 0.0316 µM, first compound 0.316 µM
# [4] = second compound 0.0316 µM, first compound 1 µM
# [5] = second compound 0.0316 µM, first compound 3.16 µM
# [6] = second compound 0.0316 µM, first compound 10 µM
# [7] = second compound 0.1 µM, first compound 0.0316 µM
# [8] = second compound 0.1 µM, first compound 0.1 µM
# [9] = second compound 0.1 µM, first compound 0.316 µM
# [10] = second compound 0.1 µM, first compound 1 µM
# [11] = second compound 0.1 µM, first compound 3.16 µM
# [12] = second compound 0.1 µM, first compound 10 µM
# [13] = second compound 0.316 µM, first compound 0.0316 µM
# [14] = second compound 0.316 µM, first compound 0.1 µM
# [15] = second compound 0.316 µM, first compound 0.316 µM
# [16] = second compound 0.316 µM, first compound 1 µM
# [17] = second compound 0.316 µM, first compound 3.16 µM
# [18] = second compound 0.316 µM, first compound 10 µM
# [19] = second compound 1 µM, first compound 0.0316 µM
# [20] = second compound 1 µM, first compound 0.1 µM
# [21] = second compound 1 µM, first compound 0.316 µM
# [22] = second compound 1 µM, first compound 1 µM
# [23] = second compound 1 µM, first compound 3.16 µM
# [24] = second compound 1 µM, first compound 10 µM
# [25] = second compound 3.16 µM, first compound 0.0316 µM
# [26] = second compound 3.16 µM, first compound 0.1 µM
# [27] = second compound 3.16 µM, first compound 0.316 µM
# [28] = second compound 3.16 µM, first compound 1 µM
# [29] = second compound 3.16 µM, first compound 3.16 µM
# [30] = second compound 3.16 µM, first compound 10 µM
# [31] = second compound 10 µM, first compound 0.0316 µM
# [32] = second compound 10 µM, first compound 0.1 µM
# [33] = second compound 10 µM, first compound 0.316 µM
# [34] = second compound 10 µM, first compound 1 µM
# [35] = second compound 10 µM, first compound 3.16 µM
# [36] = second compound 10 µM, first compound 10 µM
# [37] = second compound 0.0316 µM, first compound 0.00316 µM
# [38] = second compound 0.0316 µM, first compound 0.01 µM
# [39] = second compound 0.1 µM, first compound 0.00316 µM
# [40] = second compound 0.1 µM, first compound 0.01 µM
# [41] = second compound 0.316 µM, first compound 0.00316 µM
# [42] = second compound 0.316 µM, first compound 0.01 µM
# [43] = second compound 1 µM, first compound 0.00316 µM
# [44] = second compound 1 µM, first compound 0.01 µM
# [45] = second compound 3.16 µM, first compound 0.00316 µM
# [46] = second compound 3.16 µM, first compound 0.01 µM
# [47] = second compound 10 µM, first compound 0.00316 µM
# [48] = second compound 10 µM, first compound 0.01 µM
# 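Note: spheroids exposed to compounds for 7 days.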
smiles,measurement,setting,value
CC(C)NCC(C(=O)N1CCN(c2ncnc3c2C(C)CC3O)CC1)c1ccc(Cl)cc1 (stereo not drawn) + CC(Nc1ncnc2nc[nH]c12)c1cc2cccc(Cl)c2c(=O)n1-c1ccccc1,IC50,second compound 0.0316 µM,4.13 µM
same,IC50,second compound 0.1 µM,6.39 µM
same,IC50,second compound 0.316 µM,3.72 µM
same,IC50,second compound 1 µM,4.82 µM
same,IC50,second compound 3.16 µM,4.51 µM
same,IC50,second compound 10 µM,0.775 µM
same,"viability, T/C",[1],98.3%
same,"viability, T/C",[2],102%
same,"viability, T/C",[3],101%
same,"viability, T/C",[4],76.7%
same,"viability, T/C",[5],60%
same,"viability, T/C",[6],24.4%
same,"viability, T/C",[7],104%
same,"viability, T/C",[8],88.9%
same,"viability, T/C",[9],91.2%
same,"viability, T/C",[10],102%
same,"viability, T/C",[11],71.5%
same,"viability, T/C",[12],36.3%
same,"viability, T/C",[13],130%
same,"viability, T/C",[14],88.7%
same,"viability, T/C",[15],77.6%
same,"viability, T/C",[16],67.7%
same,"viability, T/C",[17],72.5%
same,"viability, T/C",[18],26%
same,"viability, T/C",[19],98.1%
same,"viability, T/C",[20],93.9%
same,"viability, T/C",[21],68.1%
same,"viability, T/C",[22],80%
same,"viability, T/C",[23],65.8%
same,"viability, T/C",[24],30.6%
same,"viability, T/C",[25],83.1%
same,"viability, T/C",[26],84.8%
same,"viability, T/C",[27],61.8%
same,"viability, T/C",[28],74.2%
same,"viability, T/C",[29],65.9%
same,"viability, T/C",[30],18.4%
same,"viability, T/C",[31],72.1%
same,"viability, T/C",[32],69.6%
same,"viability, T/C",[33],38.8%
same,"viability, T/C",[34],59.3%
same,"viability, T/C",[35],39.6%
same,"viability, T/C",[36],14.9%
CCN1CCN(Cc2ccc(Nc3ncc(F)c(-c4cc(F)c5nc(C)n(C(C)C)c5c4)n3)nc2)CC1 + CC(Nc1ncnc2nc[nH]c12)c1cc2cccc(Cl)c2c(=O)n1-c1ccccc1,IC50,second compound 0.0316 µM,> 1 µM
same,IC50,second compound 0.1 µM,> 1 µM
same,IC50,second compound 0.316 µM,> 1 µM
same,IC50,second compound 1 µM,0.222 µM
same,IC50,second compound 3.16 µM,0.0208 µM
same,IC50,second compound 10 µM,< 0.00316 µM
same,"viability, T/C",[37],97.8%
same,"viability, T/C",[38],81.8%
same,"viability, T/C",[1],63.5%
same,"viability, T/C",[2],60.1%
same,"viability, T/C",[3],54.7%
same,"viability, T/C",[4],51.6%
same,"viability, T/C",[39],73.2%
same,"viability, T/C",[40],82.4%
same,"viability, T/C",[7],99.5%
same,"viability, T/C",[8],54.3%
same,"viability, T/C",[9],48.6%
same,"viability, T/C",[10],60.4%
same,"viability, T/C",[41],99.1%
same,"viability, T/C",[42],110%
same,"viability, T/C",[13],74.2%
same,"viability, T/C",[14],61.9%
same,"viability, T/C",[15],46.6%
same,"viability, T/C",[16],54.5%
same,"viability, T/C",[43],96%
same,"viability, T/C",[44],85.3%
same,"viability, T/C",[19],59.7%
same,"viability, T/C",[20],50.3%
same,"viability, T/C",[21],44.9%
same,"viability, T/C",[22],54.6%
same,"viability, T/C",[45],92.2%
same,"viability, T/C",[46],62%
same,"viability, T/C",[25],43.9%
same,"viability, T/C",[26],36.1%
same,"viability, T/C",[27],42.1%
same,"viability, T/C",[28],37.7%
same,"viability, T/C",[47],43.8%
same,"viability, T/C",[48],42.4%
same,"viability, T/C",[31],32.5%
same,"viability, T/C",[32],30.7%
same,"viability, T/C",[33],30.4%
same,"viability, T/C",[34],34.6%
Cn1ncc(Cl)c1-c1cc(C(=O)NC(CN)Cc2cccc(F)c2)sc1Cl (stereo not drawn) + CC(Nc1ncnc2nc[nH]c12)c1cc2cccc(Cl)c2c(=O)n1-c1ccccc1,IC50,second compound 0.0316 µM,1.4 µM
same,IC50,second compound 0.1 µM,0.527 µM
same,IC50,second compound 0.316 µM,0.565 µM
same,IC50,second compound 1 µM,0.863 µM
same,IC50,second compound 3.16 µM,0.679 µM
same,IC50,second compound 10 µM,0.155 µM
same,"viability, T/C",[1],95.1%
same,"viability, T/C",[2],74.4%
same,"viability, T/C",[3],75.1%
same,"viability, T/C",[4],63.1%
same,"viability, T/C",[5],27.8%
same,"viability, T/C",[6],14.2%
same,"viability, T/C",[7],86.6%
same,"viability, T/C",[8],96.7%
same,"viability, T/C",[9],50%
same,"viability, T/C",[10],39.9%
same,"viability, T/C",[11],23.9%
same,"viability, T/C",[12],9.05%
same,"viability, T/C",[13],106%
same,"viability, T/C",[14],58.1%
same,"viability, T/C",[15],87.8%
same,"viability, T/C",[16],26.8%
same,"viability, T/C",[17],22.5%
same,"viability, T/C",[18],10.6%
same,"viability, T/C",[19],94.7%
same,"viability, T/C",[20],82.9%
same,"viability, T/C",[21],70.8%
same,"viability, T/C",[22],47.7%
same,"viability, T/C",[23],25.6%
same,"viability, T/C",[24],15.7%
same,"viability, T/C",[25],87.3%
same,"viability, T/C",[26],81.8%
same,"viability, T/C",[27],66.8%
same,"viability, T/C",[28],40.5%
same,"viability, T/C",[29],21.9%
same,"viability, T/C",[30],9.23%
same,"viability, T/C",[31],62.1%
same,"viability, T/C",[32],62.8%
same,"viability, T/C",[33],35%
same,"viability, T/C",[34],27.5%
same,"viability, T/C",[35],22.1%
same,"viability, T/C",[36],6.29%
Cn1ncnc1[C@H]1c2n[nH]c(=O)c3cc(F)cc(c23)N[C@@H]1c1ccc(F)cc1 + CC(Nc1ncnc2nc[nH]c12)c1cc2cccc(Cl)c2c(=O)n1-c1ccccc1,IC50,second compound 0.0316 µM,> 0.1 µM
same,IC50,second compound 0.1 µM,> 0.1 µM
same,IC50,second compound 0.316 µM,0.0763 µM
same,IC50,second compound 1 µM,> 0.1 µM
same,IC50,second compound 3.16 µM,> 0.1 µM
same,IC50,second compound 10 µM,0.000725 µM
same,"viability, T/C","second compound 0.0316 µM, first compound 0.000316 µM",116%
same,"viability, T/C","second compound 0.0316 µM, first compound 0.001 µM",80.9%
same,"viability, T/C",[37],76.1%
same,"viability, T/C",[38],82.5%
same,"viability, T/C",[1],59.2%
same,"viability, T/C",[2],53.5%
same,"viability, T/C","second compound 0.1 µM, first compound 0.000316 µM",90.6%
same,"viability, T/C","second compound 0.1 µM, first compound 0.001 µM",124%
same,"viability, T/C",[39],104%
same,"viability, T/C",[40],106%
same,"viability, T/C",[7],85.2%
same,"viability, T/C",[8],69.9%
same,"viability, T/C","second compound 0.316 µM, first compound 0.000316 µM",81%
same,"viability, T/C","second compound 0.316 µM, first compound 0.001 µM",54.3%
same,"viability, T/C",[41],71.4%
same,"viability, T/C",[42],78.3%
same,"viability, T/C",[13],62.1%
same,"viability, T/C",[14],45.6%
same,"viability, T/C","second compound 1 µM, first compound 0.000316 µM",80.3%
same,"viability, T/C","second compound 1 µM, first compound 0.001 µM",59.1%
same,"viability, T/C",[43],80.9%
same,"viability, T/C",[44],82.1%
same,"viability, T/C",[19],56.6%
same,"viability, T/C",[20],52.7%
same,"viability, T/C","second compound 3.16 µM, first compound 0.000316 µM",53.3%
same,"viability, T/C","second compound 3.16 µM, first compound 0.001 µM",57.3%
same,"viability, T/C",[45],75.8%
same,"viability, T/C",[46],49.5%
same,"viability, T/C",[25],71.1%
same,"viability, T/C",[26],56.2%
same,"viability, T/C","second compound 10 µM, first compound 0.000316 µM",58%
same,"viability, T/C","second compound 10 µM, first compound 0.001 µM",50.8%
same,"viability, T/C",[47],34.9%
same,"viability, T/C",[48],35.4%
same,"viability, T/C",[31],39%
same,"viability, T/C",[32],33.3%
